Key:
[1] = Bleaching of tea-stained (BC-1) swatches by aldehyde + NHPI + air in Tergotometer (change in reflectance); details: aldehyde 15 mM, NHPI 1 mM, carbonate buffer, 30 min, 25° C., 460 nm, average of 2 values (6 for * = Exceptional Bleaching Aldehyde)
Description: A general outline of the essential steps in our experimental protocol are shown below.
a) Measure the initial reflectance of the swatches (Ri).
b) Saturate the wash solution with air.
c) Wash, rinse and dry the swatches.
d) Measure the final reflectance of the swatches (Rf).
All work was conducted in a Tergotometer with 2L stainless steel pots. The swatches were dried flat on a rack in a Kenmore dryer. […] The conditions utilized were as follows:
Initiator N-Hydroxyphthalimide (NHPI, 1 mM)
Aldehyde Aldehyde (15 mM)
Each Tergotometer Pot was filled with 1 liter of milli-Q-water containing carbonate buffer solution which was saturated for 15 minutes with air under agitation at 25° C. Tea stained (BC-1) swatches were washed for 30 minutes in the presence of aldehyde, air and NHPI at pH=8 (25° C.). The corresponding controls (buffer alone, NHPI alone and aldehyde alone) were performed simultaneously. All swatches were rinsed twice for 3 minutes with agitation at 25° C. and dried flat on a rack in a Kenmore with soft heat for 30 minutes.
To quantify the degree of stain removal, the reflectance of 4 stained swatches (4 per pot) were measured before and after washing using a Gardner reflectometer (Model #2000) set at 460*nm (*UV filter). The change in reflectance (ΔR) was determined by taking the difference of the swatch before and after each washing. The standard deviation (σ) and ΔΔRave was assigned to each experimental group.
Rl =Initial reflectance of stained swatch before washing.
Rf =Final reflectance of stained swatch after washing.
ΔRaldehyde system+control -ΔRcontrol =ΔΔR
ΔΔRave =Represents the average bleaching by the aldehyde system.
In general, the larger the ΔΔRave value, the greater the bleaching and cleaning.
(σ)=[Σ^n aj -aa)^2 /N-I]^0.5
Σ^n =sum (aj -aa)^2 per measurement
N=number of measurements=8

[2] = Bleaching on BC-1 by 4-Ethylbenzaldehyde with various initiators; parameters: key to Δ(ΔR), #1 / Δ(ΔR), #2 / Δ(ΔR), #3 / Δ(ΔR), Average / ΔΔRave: Δ(ΔR): reflectance change of stained cloth relative to buffer ΔR; details: initiator alone, 1 mM, σav = 0.4; for Δ(ΔR), Average: average of #1-#3; for Δ(ΔR), #1: run #1; for Δ(ΔR), #2: run #2; for Δ(ΔR), #3: run #3
Description: A series of experiments were conducted to evaluate the bleaching effectiveness of NHPI and related imides. Table IV reports the effectiveness on tea stained cloth swatches by various imide initiators in combination with 4-ethylbenzaldehyde.
Value for Carbonate Buffer = ΔR
Value for Initiator = Δ(ΔR)
Value for 4EBA + Initiator = Δ(ΔR)
* = Statistically significant bleaching over buffer alone (σav

Structure (SMILES) | ΔΔRave on BC-1 at pH = 8 [1] | also measured
O=Cc1cccc([N+](=O)[O-])c1 [3-Nitrobenzaldehyde] | 1.2 | 
CC(C)(C)c1ccc(C=O)cc1 [4-t-Butylbenzaldehyde] | 1.3 | 
O=Cc1cc([N+](=O)[O-])cc([N+](=O)[O-])c1 [3,5-Dinitrobenzaldehyde] | 0.1 | 
O=Cc1ccccc1O [2-Hydroxybenzaldehyde] | 0.4 | 
O=C1CC(S(=O)(=O)O)C(=O)N1O (stereo not shown) [NHSISA] |  | Δ(ΔR), Average [2]: 0.2; Δ(ΔR), #1 [2]: 0.2; Δ(ΔR), #2 [2]: 0.5; Δ(ΔR), #3 [2]: 0.0
O=Cc1ccc(O)cc1 [4-Hydroxybenzaldehyde] | 0.7 | 
O=Cc1ccccc1Cl [2-Chlorobenzaldehyde] | 8.7 | 
O=C1CCC(=O)N1O [NHSI] |  | Δ(ΔR), Average [2]: 0.0; Δ(ΔR), #1 [2]: 0.0; Δ(ΔR), #2 [2]: 0.0; Δ(ΔR), #3 [2]: 0.0
COc1ccccc1C=O [2-Methoxybenzaldehyde] | 0.8 | 
CCCCCCCCCC=O [n-Decylaldehyde] | 0.6 | 
O=Cc1ccc(C=O)cc1 [Phenyl-1,4-dicarboxyaldehyde] | -1.1 | 
COc1cccc(C=O)c1 [3-Methoxybenzaldehyde] | 0.6 | 
O=Cc1cccc(O)c1 [3-Hydroxybenzaldehyde] | 0.8 | 
O=Cc1ccccc1S(=O)(=O)O [1-Formylbenzene-2-sulfonic acid] | 0.5 | 
CCCC=O [n-Butyraldehyde] | 0.6 | 
O=C/C=C/c1ccccc1 [trans-Cinnamaldehyde] | 1.2 | 
CC(C)(C)c1cc(C=O)cc(C(C)(C)C)c1O [4-Hydroxy-3,5-t-Butylbenzaldehyde] | 0.0 | 
CC(C)C=O [Isobutyraldehyde] | 0.4 | 
O=Cc1ccc(C(=O)O)cc1 [4-Carboxybenzaldehyde] | -0.1 | 
O=Cc1ccc(S(=O)(=O)O)o1 [5-Formylfuran-2 sulfonic Acid] | -3.3 | 
CCCOc1ccc(C=O)cc1 [4-Propyoxybenzaldehyde] | 0.2 | 
CCCCCCC=O [n-Heptyladehyde] | 0.8 | 
COc1ccc(C=O)cc1 [4-Methoxybenzaldehyde] | 1.2 | 
O=Cc1ccc([N+](=O)[O-])cc1 [4-Nitrobenzaldehyde] | 0.3 | 
O=C1C=CC(=O)N1O [NHMI] |  | Δ(ΔR), Average [2]: 0.3; Δ(ΔR), #1 [2]: 0.6; Δ(ΔR), #2 [2]: 0.1; Δ(ΔR), #3 [2]: 0.3

Structure (SMILES) | ΔΔRave on BC-1 at pH = 8 [1] | also measured
O=Cc1cc(Cl)cc(Cl)c1 [3,5-Dichlorobenzaldehyde] | -0.2 | 
O=Cc1ccco1 [2-Furfural] | 0.2 | 
O=Cc1cc(F)cc(F)c1 [3,5-Difluorobenzaldehyde] | 0.9 | 
Cc1ccc(Oc2cccc(C=O)c2)cc1 [3-(4-Methylphenoxy)benzaldehyde] | 0.0 | 
O=Cc1ccc(Cl)cc1 [4-Chlorobenzaldehyde] | -0.1 | 
O=Cc1ccccc1F [2-Fluorobenzaldehyde] | 1.0 | 
O=CC=O [Glyoxal] | 0.6 | 
C/C=C/C=O [Crotonaldehyde] | 0.7 | 
O=CN1CCOCC1 [4-Formylmorpholine] | 0.1 | 
O=Cc1ccccc1 [Benzaldehyde] | 1.5 | 
CCCCCC(C=O)=Cc1ccccc1 [α-Amylcinnamaldehyde] | 1.0 | 
CCCCCCCCCCC=O [n-Undecylaldehyde] | 0.0 | 
O=Cc1cccc(Cl)c1 [3-Chlorobenzaldehyde] | 1.9 | 
Cc1ccccc1C=O [2-Methylbenzaldehyde] | 5.8 | 
Cc1cc(C)c(C=O)c(C)c1 [2,4,6-Trimethylbenzaldehyde] | 6.3 | 
CC1(C)CCCC(C)(C)N1[O] [TEMPO] |  | Δ(ΔR), Average [2]: 1.8; Δ(ΔR), #1 [2]: 1.8; Δ(ΔR), #2 [2]: 1.8; Δ(ΔR), #3 [2]: 1.9
CN(C)c1ccc(C=O)cc1 [4-Dimethylaminobenzaldehyde] | 1.0 | 
O=Cc1ccc(F)cc1 [4-Fluorobenzaldehyde] | 1.6 | 
O=Cc1c(F)c(F)cc(F)c1F [2,3,5,6-Tetrafluorobenzaldehyde] | 0.3 | 
CCCCCCCCCCCC=O [n-Dodecylaldehyde] | 0.2 | 
O=Cc1c(Cl)cccc1Cl [2,6-Dichlorobenzaldehyde] | 0.0 | 
CC(C=O)c1ccccc1 (stereo not shown) [2-Phenylpropionaldehyde] | 0.1 | 
CCOc1ccc(C=O)cc1 [4-Ethoxybenzaldehyde] | 0.4 | 
O=Cc1cccc(Br)c1 [3-Bromobenzaldehyde] | 3.2 | 
Cc1ccc(C)c(C=O)c1 [2,5-Dimethylbenzaldehyde] | 8.8 | 

Structure (SMILES) | ΔΔRave on BC-1 at pH = 8 [1] | also measured
O=Cc1ccc(Br)cc1 [4-Bromobenzaldehyde] | 0.1 | 
Cc1cc(C)cc(C=O)c1 [3,5-Dimethylbenzaldehyde] | 9.3 | 
COc1cc(C=O)cc(OC)c1 [3,5-Dimethoxybenzaldehyde] | 1.4 | 
O=Cc1ccccc1C(F)(F)F [2-Trifluoromethylbenzaldehyde] | 10.2 | 
O=Cc1cccc(C=O)c1 [Phenyl-1,3-dicarboxyaldehyde] | 0.2 | 
O=CC(O)CO (racemic) [DL-Glyceraldehyde] | -0.8 | 
Cc1ccc(C=O)c(C)c1 [2,4-Dimethylbenzaldehyde] | 8.9 | 
Cc1cccc(C=O)c1 [3-Methylbenzaldehyde] | 10.0 | 
O=Cc1ccccc1C=O [Phenyl-1,2-dicarboxyaldehyde] | 1.1 | 
O=Cc1ccc(C(F)(F)F)cc1 [4-Trifluoromethylbenzaldehyde] | 0.3 | 
Cc1ccc(C=O)cc1C [3,4-Dimethylbenzaldehyde] | 10.3 | 
CC(C)c1ccc(C=O)cc1 [4-Isopropylbenzaldehyde] | 1.5 | 
O=C[C@H](O)[C@@H](O)[C@H](O)[C@H](O)CO [D-Glucose] | 0.6 | 
O=Cc1cccc(F)c1 [3-Fluorobenzaldehyde] | 0.6 | 
O=Cc1cccc(C(F)(F)F)c1 [3-Trifluoromethylbenzaldehyde] | 3.1 | 
CCCCCCOc1ccc(C=O)cc1 [4-Hexyloxybenzaldehyde] | 0.5 | 
O=Cc1ccccc1Br [2-Bromobenzaldehyde] | 2.1 | 
O=Cc1ncc[nH]1 [2-Imidazolecarboxy Aldehyde] | -0.5 | 
Cc1ccc(C=O)cc1 [4-Methylbenzaldehyde] | 8.3 | 
O=Cc1ccccc1[N+](=O)[O-] [2-Nitrobenzaldehyde] | 0.1 | 
COc1ccc(C=O)cc1C [4-Methoxy-3-Methylbenzaldehyde] | 0.4 | 
O=CCCCC=O | 0.7 | 
O=Cc1cccc(Oc2ccccc2)c1 [3-Phenoxybenzaldehyde] | 1.1 | 
